Experimental data: ChEMBL document CHEMBL1201862, “PubChem BioAssay data set” (2004)
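Cells were grown in 96-well plates and exposed to each compound for 48 hours at five concentrations; endpoints were interpolated linearly between bracketing concentrations, or set to the highest concentration if not reached. At the GI50, growth is halved.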 Active and inactive are the calls of the source. No stated cut-off is given here; in the data, active = GI50 up to about 1.1 µM and inactive = higher.

Assays:
Experiment in all cases: growth of human tumour cells (NCI), 48 h
786-0 = test system: 786-0
A498 = test system: A498
A549 = test system: A549
ACHN = test system: ACHN
CAKI-1 = test system: CAKI-1
CCRF-CEM = test system: CCRF-CEM
COLO 205 = test system: COLO 205
DU-145 = test system: DU-145
EKVX = test system: EKVX
HCC 2998 = test system: HCC 2998
HCT-116 = test system: HCT-116
HCT-15 = test system: HCT-15
HL-60 = test system: HL-60
HOP-62 = test system: HOP-62
HOP-92 = test system: HOP-92
HT-29 = test system: HT-29
Hs-578T = test system: Hs-578T
IGROV-1 = test system: IGROV-1
K562 = test system: K562
KM12 = test system: KM12
LOX IMVI = test system: LOX IMVI
MDA-MB-231 = test system: MDA-MB-231
MDA-MB-435 = test system: MDA-MB-435
MDA-N = test system: MDA-N
MOLT-4 = test system: MOLT-4
Malme-3M = test system: Malme-3M
NCI-H23 = test system: NCI-H23
NCI-H460 = test system: NCI-H460
NCI-H522 = test system: NCI-H522
NCI/ADR-RES = test system: NCI/ADR-RES
OVCAR-4 = test system: OVCAR-4
OVCAR-5 = test system: OVCAR-5
OVCAR-8 = test system: OVCAR-8
PC-3 = test system: PC-3
RPMI-8226 = test system: RPMI-8226
RXF 393 = test system: RXF 393
SF-268 = test system: SF-268
SF-295 = test system: SF-295
SF-539 = test system: SF-539
SK-MEL-28 = test system: SK-MEL-28
SK-MEL-2 = test system: SK-MEL-2
SK-MEL-5 = test system: SK-MEL-5
SK-OV-3 = test system: SK-OV-3
SN12C = test system: SN12C
SNB-19 = test system: SNB-19
SNB-75 = test system: SNB-75
SR = test system: SR
SW-620 = test system: SW-620
T47D = test system: T47D
TK-10 = test system: TK-10
U-251 = test system: U-251
UACC-257 = test system: UACC-257
UACC-62 = test system: UACC-62
UO-31 = test system: UO-31
M14 = test system: M14
MCF7 = test system: MCF7
OVCAR-3 = test system: OVCAR-3
NCI-H226 = test system: NCI-H226

Measured: GI50

S=C=Nc1ccc(CSc2nc3ccccc3[nH]2)cc1
15 µM: HCT-15
inactive: 786-0 19.9 µM | A498 23 µM | A549 17.1 µM | ACHN 14.3 µM | CAKI-1 17.7 µM | CCRF-CEM 29.5 µM | COLO 205 15.5 µM | DU-145 16.1 µM | EKVX 20 µM | HCC 2998 18.1 µM | HCT-116 24 µM | HL-60 36.5 µM | HOP-62 17.5 µM | HOP-92 16.8 µM | HT-29 18.4 µM | Hs-578T 41.6 µM | IGROV-1 18.2 µM | K562 39.4 µM | KM12 17.5 µM | LOX IMVI 17.2 µM | MDA-MB-231 23.3 µM | MDA-MB-435 17.5 µM | MDA-N 15.9 µM | MOLT-4 23.7 µM | Malme-3M 17.6 µM | NCI-H23 17.6 µM | NCI-H460 20.8 µM | NCI-H522 4.25 µM | NCI/ADR-RES 18 µM | OVCAR-4 17.3 µM | OVCAR-5 18.2 µM | OVCAR-8 17.8 µM | PC-3 17.9 µM | RPMI-8226 23.2 µM | RXF 393 16.4 µM | SF-268 17 µM | SF-295 17.3 µM | SF-539 18.8 µM | SK-MEL-28 18.7 µM | SK-MEL-2 18.9 µM | SK-MEL-5 15.9 µM | SK-OV-3 21.6 µM | SN12C 17.5 µM | SNB-19 25.9 µM | SNB-75 12.9 µM | SR 20.7 µM | SW-620 17.3 µM | T47D 15.2 µM | TK-10 20.1 µM | U-251 17.1 µM | UACC-257 19.3 µM | UACC-62 15.8 µM | UO-31 19.5 µM

O=C1c2ccccc2C(=O)N1CCc1ncc[nH]1
> 100 µM: HCT-15
inactive: 786-0 > 100 µM | A549 > 100 µM | ACHN > 100 µM | CAKI-1 > 100 µM | CCRF-CEM > 100 µM | COLO 205 > 100 µM | DU-145 > 100 µM | EKVX > 100 µM | HCT-116 > 100 µM | HOP-92 > 100 µM | HT-29 > 100 µM | Hs-578T > 100 µM | IGROV-1 > 100 µM | K562 > 100 µM | KM12 > 100 µM | LOX IMVI > 100 µM | M14 > 100 µM | MCF7 > 100 µM | MDA-MB-435 > 100 µM | MDA-N > 100 µM | MOLT-4 > 100 µM | NCI-H23 > 100 µM | NCI-H460 > 100 µM | NCI-H522 > 100 µM | NCI/ADR-RES > 100 µM | OVCAR-3 > 100 µM | OVCAR-5 > 100 µM | OVCAR-8 > 100 µM | PC-3 > 100 µM | RPMI-8226 > 100 µM | SF-268 > 100 µM | SF-295 > 100 µM | SF-539 > 100 µM | SK-MEL-28 > 100 µM | SK-MEL-2 > 100 µM | SK-MEL-5 > 100 µM | SN12C > 100 µM | SNB-19 > 100 µM | SR > 100 µM | SW-620 > 100 µM | T47D > 100 µM | TK-10 > 100 µM | UACC-257 > 100 µM | UACC-62 > 100 µM | UO-31 > 100 µM

O=c1cc(-c2ccc(O)cc2)n(C2CC2)c2ccccc12
4.08 µM: HCT-15
inactive: 786-0 4.06 µM | A549 4.52 µM | ACHN 2.47 µM | CAKI-1 4.42 µM | CCRF-CEM 7.16 µM | COLO 205 2.64 µM | DU-145 3.64 µM | HCT-116 2.75 µM | HL-60 19.7 µM | HOP-62 4.41 µM | HOP-92 3.52 µM | HT-29 1.57 µM | Hs-578T 5.41 µM | IGROV-1 5.3 µM | K562 7.87 µM | KM12 3.45 µM | LOX IMVI 4.67 µM | M14 6.89 µM | MCF7 4.66 µM | MDA-MB-231 8.47 µM | MDA-MB-435 4.83 µM | MDA-N 10.6 µM | MOLT-4 50.9 µM | NCI-H226 2.67 µM | NCI-H23 8.73 µM | NCI-H460 3.76 µM | NCI-H522 3.18 µM | NCI/ADR-RES 11.9 µM | OVCAR-3 4.23 µM | OVCAR-5 3.64 µM | OVCAR-8 5.31 µM | PC-3 9.44 µM | RPMI-8226 3.35 µM | RXF 393 2.82 µM | SF-268 7.29 µM | SF-295 3.46 µM | SF-539 5.38 µM | SK-MEL-2 2.77 µM | SK-MEL-5 6.4 µM | SK-OV-3 9.08 µM | SN12C 6.01 µM | SNB-19 5.08 µM | SR 7.43 µM | SW-620 5.05 µM | T47D 3.96 µM | U-251 5.31 µM | UACC-257 10.2 µM | UACC-62 3.91 µM | UO-31 4.02 µM

Cc1cc(C)c(OC(=O)Nc2cccc3ccccc23)c(-c2ccccc2)c1
inactive: 786-0 50.5 µM | A549 32.6 µM | ACHN 23.7 µM | CAKI-1 33.7 µM | CCRF-CEM 22.2 µM | COLO 205 50.1 µM | DU-145 31.9 µM | EKVX 38.3 µM | HCC 2998 27.7 µM | HCT-116 34.9 µM | HL-60 21.1 µM | HOP-62 65.8 µM | HOP-92 26.1 µM | HT-29 43.2 µM | Hs-578T 25 µM | IGROV-1 36.5 µM | K562 41.8 µM | KM12 28.4 µM | LOX IMVI 24.8 µM | M14 29.1 µM | MCF7 52.5 µM | MDA-MB-231 25.5 µM | MDA-MB-435 30.1 µM | MDA-N 29 µM | MOLT-4 3.81 µM | Malme-3M 32.4 µM | NCI-H226 18.3 µM | NCI-H23 30.5 µM | NCI-H460 47.9 µM | NCI/ADR-RES 26.9 µM | OVCAR-3 24.5 µM | OVCAR-4 31.3 µM | OVCAR-5 73.8 µM | OVCAR-8 33.6 µM | PC-3 15.9 µM | RPMI-8226 22.5 µM | SF-268 12.6 µM | SF-295 48.8 µM | SF-539 57 µM | SK-MEL-28 31.3 µM | SK-MEL-2 > 10 µM | SK-MEL-5 16.4 µM | SK-OV-3 67.6 µM | SN12C 38.2 µM | SNB-75 14.5 µM | SR 19.6 µM | SW-620 57.8 µM | T47D 48.6 µM | TK-10 33.4 µM | U-251 37.8 µM | UACC-62 30.4 µM | UO-31 7.52 µM
34.4 µM: HCT-15
